Our source for the EC50 values is US10202404B2, “Polycyclic pyridone derivative having integrase inhibitory activity” (Shionogi & Co., Ltd., priority 2014, dated 2019).

One experiment concerns HIV. The experiment is described as follows: Anti-HIV activity (MT-4 cells, MTT). It counts as cell-based. The conditions noted are these: 50% HIV inhibition concentration; MT-4 cells infected with HIV, incubated 4 days, MTT readout. On the procedure:
Previously, a series of two-fold dilution on test samples were carried out in a 96-well plate (50 μL/well). Two plates were made for measuring anti-HIV activity and measuring cytotoxicity. For each agent, measurement in duplicate was carried out. An MT-4 cell suspension of 2.5×10^5/mL was dispensed at 100 μL/well onto the 96-well plate containing the test samples. An HIV virus solution was dispensed at 50 μL/well onto the 96-well plate containing the test samples and the cell. To the plate for measuring cytotoxicity, a culture solution was dispensed at 50 μL/well. It was mixed by a plate mixer, and then incubated in a CO2 incubator for 4 days. […] Thirty microliters of a MTT (3-(4,5-dimethylthiazol-2-yl)-2,5-diphenyltetrazolium bromide) solution was dispensed to each well.
A reaction was allowed to occur in a CO2 incubator for an hour. From each well, 150 μL of the supernatant was removed such that cells are not sucked. One-hundred and fifty microliters of a cell lysis solution was added thereto, and then it was mixed well by a plate mixer until the whole cells are lysed. The mixed 96-well plates were measured by a microplate reader at two wavelengths, 560 nm/690 nm. Based on the following calculation formula, 50% HIV inhibition concentration (EC50) was calculated. EC50=10Z Z=(50%−Low %)/(High %−Low %)×{log(High conc.)−log(Low conc.)}+log(Low conc.) Based on the following calculation formula, 50% cytotoxic concentration (CC50) was calculated. CC50=10Z Z=(50%−Low %)/(High %−Low %)×{log(High conc.)−log(Low conc.)}+log(Low conc.) Based on the following calculation formula, selectivity index (ST) was calculated. SI=CC50/EC50 (Result)
Turning to `C[C@@H]1CCO[C@H]2Cn3cc(-c4nnc(Oc5ccc(F)cc5F)s4)c(=O)c(O)c3C(=O)N12` [Compound A-51], the half-maximal effective concentration (EC50) was determined as 6.8 nM.

For `O=C1c2c(O)c(=O)c(-c3nnc(Cc4cccc(Cl)c4F)s3)cn2CN2CCCCN12` [Compound C-14], the response was half-maximal at 2.2 nM (EC50).

Regarding `C[C@@H]1CCO[C@H]2Cn3cc(-c4cn(Cc5ccc(F)cc5F)cn4)c(=O)c(O)c3C(=O)N12` [Compound A-49], the concentration for a half-maximal effect (EC50) turned out to be 10 nM.

Staying with this experiment, now noted: Human immunodeficiency virus 1, MT4, 96 h; 50% HIV inhibition concentration; MT-4 cells infected with HIV, incubated 4 days, MTT readout.
`C[C@H]1CO[C@@H]2Cn3cc(-c4ncc(Cc5cccc(Cl)c5F)s4)c(=O)c(O)c3C(=O)N12` [Compound A-2] returned an EC50 of 2.5 nM.

`C[C@@H]1CCO[C@H]2Cn3cc(-c4nnc(Cc5ccc(F)c(F)c5F)s4)c(=O)c(O)c3C(=O)N12` [Compound A-31] showed a concentration giving a half-maximal response (EC50) of 2.3 nM.

For `CCN1NCn2cc(-c3nnc(Cc4ccc(F)cc4F)s3)c(=O)c(O)c2C1=O` [Compound C-25], the EC50 stood at 2.2 nM.

In the case of `O=C1c2c(O)c(=O)c(-c3nnc(Cc4cccc(Cl)c4F)s3)cn2C[C@@H]2N1C[C@H]1CCCN12` [Compound A-54], the response was half-maximal at 1.6 nM (EC50).

As for `O=C1c2c(O)c(=O)c(-c3nnc(Cc4ccc(F)cc4F)s3)cn2C[C@@H]2C[C@@H](F)CCN12` [Compound B-21], the EC50 was 4 nM.

`C[C@@H]1CCO[C@H]2Cn3cc(-c4nc(C(F)(F)F)c(Cc5ccc(F)cc5F)s4)c(=O)c(O)c3C(=O)N12` [Compound A-48] returned an EC50 of 14 nM.

As to `C[C@@H]1CCO[C@H]2Cn3cc(-c4cc(Cc5ccc(F)cc5F)sn4)c(=O)c(O)c3C(=O)N12` [Compound A-71], the concentration for a half-maximal effect (EC50) turned out to be 9.3 nM.

Molecule `O=C1c2c(O)c(=O)c(-c3ncc(Cc4cccc(Cl)c4F)s3)cn2C[C@@H]2CCCCN12` [Compound B-19] displayed a half-maximal effective concentration (EC50) of 18 nM.

`O=C1c2c(O)c(=O)c(-c3nnc(Cc4cccc(Cl)c4F)s3)cn2C[C@H]2CCCN12` [Compound B-4] had an EC50 of 5.5 nM.

`C[C@H]1CCO[C@@H]2Cn3cc(-c4nnc(Cc5cccc(Cl)c5F)s4)c(=O)c(O)c3C(=O)N12` [Compound A-28]: the concentration giving a half-maximal response (EC50) came out at 3.3 nM.

`COCc1cc(F)cc(F)c1Cc1nnc(-c2cn3c(c(O)c2=O)C(=O)N2[C@H](C)CCO[C@H]2C3)s1` [Compound A-75] came in with an EC50 of 10 nM.

`COCCN1Cn2cc(-c3nnc(Cc4ccc(F)cc4F)s3)c(=O)c(O)c2C(=O)N1CCOC` [Compound C-27] had an EC50 of 2 nM.

Turning to `CCN1CN([C@H](C)C(F)(F)F)C(=O)c2c(O)c(=O)c(-c3nnc(Cc4cccc(Cl)c4F)s3)cn21` [Compound C-6], a half-maximal effect (EC50) was put at 5.7 nM.

With `O=C1c2c(O)c(=O)c(-c3nnc(Cc4cccc(Cl)c4F)s3)cn2C[C@H]2CCCCN12` [Compound B-5], a half-maximal effect (EC50) was put at 6.7 nM.

Molecule `O=C1c2c(O)c(=O)c(-c3nnc(Cc4ccc(F)cc4F)s3)cn2CC2OCC3(COC3)CN12` (stereo not shown) [Compound A-58] gave an EC50 of 10 nM.

For the molecule `C[C@@H]1CO[C@H]2Cn3cc(-c4ncc(Cc5cccc(Cl)c5F)s4)c(=O)c(O)c3C(=O)N12` [Compound A-3], the half-maximal effective concentration (EC50) worked out at 3.7 nM.

`COCCN1Cn2cc(-c3nnc(Cc4ccc(F)cc4F)s3)c(=O)c(O)c2C(=O)N1C` [Compound C-26] came in with an EC50 of 1.5 nM.

`C[C@@H]1CCS[C@H]2Cn3cc(-c4nnc(Cc5ccc(F)cc5F)s4)c(=O)c(O)c3C(=O)N12` [Compound A-76] returned an EC50 of 4.7 nM.

As for `C[C@@H]1CCO[C@H]2Cn3cc(-c4nnc(C(F)(F)c5cccc(Cl)c5F)s4)c(=O)c(O)c3C(=O)N12` [Compound A-43], the EC50 amounted to 3.6 nM.

The molecule `CC1CCN2Cn3cc(-c4nnc(Cc5ccc(F)cc5F)s4)c(=O)c(O)c3C(=O)N12` (stereo not shown) [Compound C-28] returned a concentration giving a half-maximal response (EC50) of 4.8 nM.

`O=C1c2c(O)c(=O)c(-c3ncc(Cc4ccc(F)cc4F)s3)cn2C[C@@H]2CCCN12` [Compound B-13] registered an EC50 of 7.7 nM.

`C[C@@H]1CO[C@H]2Cn3cc(-c4nnc(Cc5cccc(Cl)c5F)s4)c(=O)c(O)c3C(=O)N2C1` [Compound A-22] gave an EC50 of 1.7 nM.

`O=C1c2c(O)c(=O)c(-c3nnc(Cc4ccc(F)cc4F)s3)cn2C[C@@H]2COCCN12` [Compound B-10] yielded an EC50 of 10 nM.

As to `C[C@@H]1CO[C@H]2Cn3cc(-c4nnc(Cc5cccc(Cl)c5F)s4)c(=O)c(O)c3C(=O)N12` [Compound A-20], the EC50 was found to be 3 nM.

On to `O=C1c2c(O)c(=O)c(-c3nnc(Cc4c(F)cc(F)cc4F)s3)cn2C[C@@H]2CCCCN12` [Compound B-8], for which the EC50 was 3.8 nM.

`O=C1c2c(O)c(=O)c(-c3nnc(Cc4ccc(F)cc4F)s3)cn2C[C@H]2COCCN12` [Compound B-11] displayed an EC50 of 5.9 nM.

The molecule `O=C1c2c(O)c(=O)c(-c3nnc(Cc4ccc(F)cc4F)s3)cn2C[C@@H]2O[C@H]3CC[C@H](C3)N12` [Compound A-66] came in with a 50% effective concentration (EC50) of 7.2 nM.

On to `C[C@@H]1CCO[C@H]2Cn3cc(-c4nnc(Cc5ccc(F)c(Cl)c5)s4)c(=O)c(O)c3C(=O)N12` [Compound A-33], for which the EC50 was 2.5 nM.

Regarding `C[C@@H]1N2C(=O)c3c(O)c(=O)c(-c4nnc(Cc5ccc(F)cc5F)s4)cn3C[C@H]2OCC1(F)F` [Compound A-77], a half-maximal response (EC50) required 7.2 nM.

Take `CCN1CN(CCOC)C(=O)c2c(O)c(=O)c(-c3nnc(Cc4cccc(Cl)c4F)s3)cn21` [Compound C-4]: the half-maximal effective concentration (EC50) came to 2.1 nM.

Molecule `O=C1c2c(O)c(=O)c(-c3nnc(Cc4c(F)cc(F)cc4F)s3)cn2C[C@H]2CCCCN12` [Compound B-7] showed a half-maximal effective concentration (EC50) of 2.9 nM.

Regarding `C[C@@H]1CO[C@H]2Cn3cc(-c4nnc(Cc5ccc(F)cc5F)s4)c(=O)c(O)c3C(=O)N2C1` [Compound A-21], the concentration giving a half-maximal response (EC50) stood at 1 nM.

Turning to `C[C@H]1CN(C2CC2)[C@@H]2Cn3cc(-c4nnc(Cc5ccc(F)cc5F)s4)c(=O)c(O)c3C(=O)N12` [Compound A-60], a half-maximal response (EC50) required 2 nM.

As for `Cc1nc(-c2cn3c(c(O)c2=O)C(=O)N2[C@@H](C)CO[C@@H]2C3)sc1Cc1ccc(F)cc1F` [Compound A-47], the EC50 was 3.4 nM.

As to `O=C1c2c(O)c(=O)c(-c3nnc(Cc4ccc(F)cc4F)s3)cn2C[C@H]2O[C@@H]3CC[C@@H](C3)N12` [Compound A-65], the EC50 is 4.2 nM.

Turning to `CCN1CN(CCCOC)C(=O)c2c(O)c(=O)c(-c3nnc(Cc4cccc(Cl)c4F)s3)cn21` [Compound C-8], a half-maximal response (EC50) required 2.4 nM.

Molecule `C[C@H]1N2C(=O)c3c(O)c(=O)c(-c4nnc(Cc5ccc(F)cc5F)s4)cn3C[C@@H]2OCC1(F)F` [Compound A-78] registered an EC50 of 4.6 nM.

In turn, `O=C1c2c(O)c(=O)c(-c3nnc(Cc4ccc(F)cc4F)s3)cn2C[C@@H]2N1C[C@H]1CCCN12` [Compound A-55] returned an EC50 of 1.7 nM.

In the case of `COc1c(F)ccc(Cc2nnc(-c3cn4c(c(O)c3=O)C(=O)N3[C@H](C)CCO[C@H]3C4)s2)c1F` [Compound A-32], the 50% effective concentration (EC50) came to 12 nM.

The molecule `O=C1c2c(O)c(=O)c(-c3nnc(Cc4ccc(F)cc4F)s3)cn2CN2CCCCN12` [Compound C-15] displayed a 50% effective concentration (EC50) of 1.7 nM.

Regarding `C[C@@H]1CCO[C@H]2Cn3cc(-c4nnc(Cc5c(F)cc(F)cc5F)s4)c(=O)c(O)c3C(=O)N12` [Compound A-23], a half-maximal effect (EC50) was put at 2.6 nM.

`O=C1c2c(O)c(=O)c(-c3ncc(Cc4cccc(Cl)c4F)s3)cn2C[C@H]2CCCN12` [Compound B-17] returned a concentration for a half-maximal effect (EC50) of 5.3 nM.

`O=C1c2c(O)c(=O)c(-c3nnc(Cc4ccc(F)cc4F)s3)cn2C[C@@H]2[C@@H]3C[C@@H]3CN12` [Compound B-9] had an EC50 of 2 nM.

In turn, `O=C1c2c(O)c(=O)c(-c3nnc(Cc4cccc(Cl)c4F)s3)cn2C[C@@H]2CCCCN12` [Compound B-6] came in with an EC50 of 7.5 nM.

Consider `C[C@@H]1CCN2C(=O)c3c(O)c(=O)c(-c4ncc(Cc5cccc(Cl)c5F)s4)cn3C[C@@H]2O1` [Compound A-5], for which the EC50 was 8 nM.

As to `CN1Cn2cc(-c3nnc(Cc4ccc(F)cc4F)s3)c(=O)c(O)c2C(=O)N1C` [Compound C-18], the EC50 turned out to be 2.3 nM.

`C[C@@H]1CCO[C@H]2Cn3cc(-c4nnc(Cc5c(Cl)ccc(Cl)c5F)s4)c(=O)c(O)c3C(=O)N12` [Compound A-27] returned a half-maximal effective concentration (EC50) of 3.5 nM.

`C[C@@H]1CO[C@H]2Cn3cc(-c4ncc(Cc5ccc(F)cc5F)s4)c(=O)c(O)c3C(=O)N12` [Compound A-7] yielded a half-maximal effective concentration (EC50) of 6.5 nM.

Take `C[C@@H]1CO[C@H]2Cn3cc(-c4ncc(Cc5cccc(Cl)c5F)s4)c(=O)c(O)c3C(=O)N2C1` [Compound A-9]: the concentration for a half-maximal effect (EC50) was found to be 7.1 nM.

`O=C1c2c(O)c(=O)c(-c3nnc(Cc4ccc(F)cc4F)s3)cn2C[C@@H]2O[C@H]3CCC[C@H]3N12` [Compound A-63] had an EC50 of 2 nM.

Consider `COCCN1CC[C@H](C)N2C(=O)c3c(O)c(=O)c(-c4nnc(Cc5ccc(F)cc5F)s4)cn3C[C@@H]12` [Compound A-61], for which the midpoint of the response, the EC50, lay at 4.1 nM.

As for `C[C@@H]1CCO[C@H]2Cn3cc(-c4cc(Cc5ccc(F)cc5F)n(C)n4)c(=O)c(O)c3C(=O)N12` [Compound A-79], the EC50 was found to be 15 nM.
